Read-outs that look alike come from different tables or passages of the source.
Experiments:
[1] = tested on: Staphylococcus aureus ATCC12600; type: cell-based
Description: Spontaneous resistance frequencies in Staphylococcus aureus were determined by plating defined numbers of cells of Staphylococcus aureus ATCC12600 (1×10^8-1×10^12 cfu/plate) on Mueller-Hinton agar containing rifampin, myxopyronin B, or both, and counting numbers of colonies after 14 h at 37° C. Experiments were performed using (a) rifampin at 1×, 2×, or 4× the minimum inhibitory concentration of rifampin administered individually; (b) myxopyronin B at lx, 2×, or 4× the minimum inhibitory concentration of myxopyronin B administered individually; or (c) both rifampin at 1×, 2×, or 4× the minimum inhibitory concentration of rifampin administered individually and myxopyronin B at 1×, 2×, or 4× the minimum inhibitory concentration of myxopyronin B administered individually. All experiments were performed four times, using four different starting cultures.

[2] = tested on: Escherichia coli D21f2tolC; type: cell-based; details: 2xMIC; for resistance rate per generation: MSS-MLE
Description: Spontaneous resistance frequencies in Escherichia coli were determined by plating defined numbers of cells of Escherichia coli D21f2tolC (1×10^8-1×10^12 cfu/plate) on LB agar containing rifampin, myxopyronin B, or both, and counting numbers of colonies after 24 h at 37° C. Experiments were performed using (a) rifampin at 2× the minimum inhibitory concentration of rifampin administered individually; (b) myxopyronin B at 2× the minimum inhibitory concentration of myxopyronin B administered individually; or (c) both rifampin at 2× the minimum inhibitory concentration of rifampin administered individually and myxopyronin B at 2× the minimum inhibitory concentration of myxopyronin B administered individually. All experiments were performed at least five times, using at least five different starting cultures. Resistance rates and 95% confidence intervals were calculated using the Ma-Sandri-Sarkar Maximum Likelihood Estimator (MSS-MLE; [Ma, W, Sandri, GvH., Sarkar, S. (1992. ) J. Appl. Probab. 29, 255-267; Sarkar, S., Ma, W., Sandri, GvH. (1992) Genetica 85, 173-179]) as implemented on the Fluctuation Analysis Calculator (FALCOR; http://www.keshaysingh.org/protocols/FALCOR.html; [Hall, B., Ma, C., Liang, P., Singh, K (2009) Bioinformatics 25, 1564-1565]). Sampling correction was performed as in [Stewart, F., Gordon, D., Levin, B. (1990) Genetics 124, 175-185; Jones, M. (1993) Mutat. Res. 292, 187-189].

| Compound | spontaneous resistance frequency ([1]; 2xMIC) | spontaneous resistance frequency [2] | resistance rate per generation [2] | spontaneous resistance frequency ([1]; 1xMIC) | spontaneous resistance frequency ([1]; 4xMIC) | spontaneous resistance frequency ([1]; mean of 1x, 2x, 4xMIC) |
| --- | --- | --- | --- | --- | --- | --- |
| CCc1c(Cl)c(O)c(Cl)c(O)c1C(=O)O[C@H]1[C@H](O)[C@H](OC)[C@H](OC/C2=C\C=C\C[C@H](O)/C(C)=C/[C@H](CC)[C@@H](O[C@@H]3OC(C)(C)[C@@H](OC(=O)C(C)C)[C@H](O)[C@@H]3O)/C(C)=C/C(C)=C/C[C@@H]([C@@H](C)O)OC2=O)O[C@@H]1C [lipiarmycin A3] | 3×10^−8 |  |  |  |  |  |
| CO[C@H]1/C=C/O[C@@]2(C)Oc3c(C)c(O)c4c(O)c(c(/C=N/N5CCN(C)CC5)c(O)c4c3C2=O)NC(=O)/C(C)=C\C=C\[C@H](C)[C@H](O)[C@@H](C)[C@@H](O)[C@@H](C)[C@H](OC(C)=O)[C@@H]1C [rifampin] | 6×10^−8 | 4×10^−9 | 1×10^−9 per generation | 5 × 10^−8 | 6 × 10^−8 | 6×10^−8 |
| CCCC/C(C)=C/C=C(\C)C(=O)c1c(O)cc([C@H](C)CC/C=C/NC(=O)OC)oc1=O [myxopyronin B] | 7 × 10^−8 | 8×10^−10 | 3×10^−10 per generation | 4 × 10^−8 | 7 × 10^−8 | 6×10^−8 |

From patent US9839634B2 (priority 2012, dated 2017)
